Like-named read-outs stand apart in the source and are kept apart here.
Experiments:
[1] = SHR assay, blood pressure in conscious spontaneously hypertensive rats; type: in vivo, rat (spontaneously hypertensive rats; conditions: P.O.
Description: The ability of the compounds to lower blood pressure can be assessed in vivo in conscious spontaneously hypertensive rats (SHRs). SHR males are purchased from Taconic Farms, Germantown, N.Y. and are approximately 16-18 weeks old when anesthetized with ether. The caudal (ventral tail) artery is cannulated with polyethylene tubing (PE50), and blood pressure and heart rate are recorded as described by Baum, T. et. al., J. Cardiovasc. Pharmacol., Vol 5, pp. 655-667 (1983). Rats are placed into plastic cylindrical cages where they rapidly recover consciousness. Blood pressure and heart rate are allowed to stabilize for approximately 90 minutes prior to administration of the test compound. Compounds are administered orally as solutions or suspensions in 0.4% aqueous methylcellulose vehicle via a feeding needle. The compound or 0.4% aqueous methylcellulose vehicle is given in a volume of 4 ml/kg to SHRs that been fasted overnight. Activity is expressed as the fall in mean blood pressure (MBP) in millimeters of mercury (mm Hg). Compound-induced changes are compared with the changes in an appropriate placebo group.

[2] = molecular target: T1, cGMP phosphodiesterase (cGMP-PDE) (Bos taurus, UniProt Q28156); assay: Phosphodiesterase inhibition in vitro (cGMP-PDE); type: biochemical; conditions: bovine lung cGMP-PDE; 1 μM 3H-cGMP, pH 7.5, 25 minutes, room temperature
T1 construct: is a homogeneous enzyme obtained from bovine lung; from tissue; host or cells: bovine lung

HSV-2 (strain MS) = assay: Transient expression of beta galactosidase in transfected HeLa cells superinfected with HSV-2 (HSV-β-Gal assay); type: cell-based; conditions: 24 hours
Description: HeLa and Vero cell cultures were maintained in Eagles Minimal Essential Medium (EMEM) which was supplemented with glutamine, penicillin, streptomycin and 10% fetal calf serum (10% EMEM). Stock cultures of HSV-2 (strain MS available from ATCC VR-540) were grown in and harvested from Vero cells. Viral stocks were titered in Vero cells according to established procedures.
Plasmid pON^ori- 245 contains the promoter of the HSV-1 thymidine kinase (tk) gene located immediately 5' of the E. coli lac Z gene. In this arrangement, the tk promoter controls transcription from the bacterial gene in transient expression assays. Additionally, an SV40 polyadenylation signal is present at the 3' end of the lac Z gene to allow for the efficient translation of the mRNA in eucaryotic cells. The expression of beta galactosidase in a transient assay using pON 245^ori- is dependent upon superinfection of the transfected cells with HSV. […] For example, see European Patent Application No. 88302149.5 filed Mar. 11, 1988 and published Sep. 14, 1988 as 282,330, the disclosure of which is incorporated herein by reference thereto.
HeLa cells were seeded into 96 well microtiter plates and allowed to grow to 80% confluency (approximately 35000 cells/well). One half microgram of plasmid pON 245^ori- DNA was introduced into the cells of each well by the […] precipitation technique (Grabman and Van der Eb, 1973). Four to six hours later, the cells were rinsed with Hank's Balanced Salt Solution (HBSS), overlaid with 10% EMEM and incubated at 37° C. At 24 hours post-transfection, cells were rinsed, overlaid with 10% EMEM again and re-incubated at 37° C. At 48 hours post-transfection, cells were rinsed and overlaid with either EMEM containing 2% fetal calf serum (2% EMEM), 2% EMEM containing HSV-2 (strain MS, Multiplicity of Infection [moi]=5 pfu/cell) or 2% EMEM containing HSV-2 and the appropriate concentration of the compound to be tested. Twenty-four hours later, the cells were harvested and assayed for beta-galactosidase activity as described below.
All determinations of beta galactosidase activity were performed in 96-well microtiter plates. The intracellular level of beta-galactosidase activity in each well was determined from cell lysates of the monolayer cultures. Aliquots were assayed by incubation in the presence of beta-galactosidase substrate, 4-methylumbelliferyl-β-D-galactoside (MUG, 125 ug/ml, Sigma), for 2 hours. The generation of fluorescent product was quantified on a Microfluor microfluorimeter (Dynatech) after addition of 0.1M glycine, pH 10.3 (Spaete and Mocarski, 1985). The inhibitory activity of a compound was plotted versus the concentration and an IC50 value (the concentration in mcg/ml of compound required to reduce beta-galactosidase expression by 50%) was obtained for each compound tested.

[3] = Compound toxicity assay: inhibition of HeLa cell translation (3H-LEU assay); type: cell-based; conditions: human; HeLa cells, cellular translational activity; read-out: CYTOTOXICITY 3H-LEU ASSAY IC50
Description: HeLa cells were treated with inhibitory compound for 24 hours, after which levels of translational activity were assayed.
For assay of translational activity, HeLa cultures were grown to 80% confluency in 96 well microtiter plates, treated with appropriate concentrations of compound in 2% EMEM during an overnight incubation at 37° C., then rinsed with HBSS and overlaid with […] of 2% EMEM containing 8 μCi of tritiated leucine (^3 H-LEU, 141 Cu/mMol, Amersham Corp., Arlington Heights Ill.). After a 1 hour incubation at 36.5° C., the cells were rinsed twice with phosphate-buffered saline (PBS) and lysed in 400 ul/well of 1 × PBS, 0.5% sodium dodecyl sulphate (SDS). After a 10 min incubation at 36.5° C., the contents of the well were transferred to a well in a Millititer HA microfiltration plate (Millipore Corp., Bedford, Mass.). The TCA-insolubleproteins were precipitated onto the filter disc by a 10 min fixation with 5% TCA, followed by filtration under vacuum and three 10 minute rinses with 95% ethanol. The filters were dried at room temperature, cut from the milltitier plate and transferred to scintillation vials. TCA-precipitable counts were assayed in 5 ml of Scintisol (Isolab, Akron, Ohio). The inhibitory activity of a compound was plotted versus the concentration and an IC50 value (that concentration of the compound required to decrease cellular translational activity by 50%) was derived for each compound.

herpes virus = conditions: mammals; cited from earlier work
HSV-1 = conditions: against HSV-1; cited from earlier work
HSV = conditions: humans; cited from earlier work
HSV-2 = conditions: against HSV-2; cited from earlier work
HSV-2, strain MS = assay: In vivo anti-HSV efficacy, prophylactic guinea pig model of HSV infection; conditions: 60 mg per kg s.c., T.I.D., 10 days; for Neurological Dysfunction (%): percentage of animals developing loss of bladder/hindlimb control, placebo 66; for MLS (Maximum Lesion Scores): scale of 1 to 4, first dose 24 hours before infection, placebo 2.22
Description: The in vivo assessment of anti-HSV efficacy was determined in the prophylactic guinea pig model of HSV infection described by Stansberry et al. (1982). Dosing of guinea pigs comprised an initial treatment with test compound given 24 hours prior to virus infection and subsequent administration of the compound every eight hours (T.I.D.) for a total of 10 days. Test compounds were administered subcutaneously in 0.5% buffered methyl cellulose at a dose of 60 mg per kg body weight of the animal. Animals were monitered daily for the development of genital lesions and neurological symptomology, both of which were recorded and compared to the results obtained with parallel groups which received placebo or acyclovir. Efficacy was evaluated for each compound by scoring the ability of the compound to ameliorate genital lesions produced by infection with HSV-2, strain MS, expressed as Maximum Lesson Scores (MLS) on a scale of 1 (least lessions) to 4 (severe lessons).

[4] = Human alphaherpesvirus 2, moi 5 pfu/cell, read-out: ANTI-HSV ACTIVITY HSV-β-Gal ASSAY IC50
[5] = Human alphaherpesvirus 2, Repeat, moi 5 pfu/cell, read-out: ANTI-HSV ACTIVITY HSV-β-Gal ASSAY IC50 (repeat)

Compound	IC50 (HSV-2 (strain MS); [4]) [µg/mL]	CC50 at 24 h [3] [µg/mL]	other results
Cc1ccc2c(c1)c(O)c(C=O)c(=O)n2Cc1ccccc1 [Formula 1.5]	4	16	Fall in MBP ([1]; 50 mpk): 40 mm Hg; IC50 [2]: 90 µM
CCN(CC)CC(=O)Nc1c(C)cccc1C [lidocaine, 2-(diethylamino)-N-(2,6-dimethylphenyl)acetamide]	–	–	treatment of herpes virus infections (in words) (herpes virus): able to treat herpes virus infections of mammals; antiviral activity in cell culture (in words) (HSV-1): antiviral agent in cell culture against HSV-1 and HSV-2; treatment of HSV oral and genital lesions (in words) (HSV): particularly effective in the treatment of HSV oral and genital lesions in humans; antiviral activity in cell culture (in words) (HSV-2): antiviral agent in cell culture against HSV-1 and HSV-2
O=Cc1c(O)c2ccccc2n(-c2ccccc2)c1=O [Formula 1.9]	8	12	Neurological Dysfunction (%) (HSV-2, strain MS): 0%; MLS (Maximum Lesion Scores) (HSV-2, strain MS): 0.67; IC50 [2]: 18 µM
COc1ccc(OCCCOCn2c(=O)c(C=O)c(O)c3ccccc32)c(Cl)c1 [Formula 1.14]	18	–	–
CCCCCCCn1c(=O)c(C=O)c(O)c2ccccc21 [Formula 1.4]	4	32	IC50 (HSV-2 (strain MS); [5]): 4 µg/mL
Cc1cccc2c(O)c(C=O)c(=O)n(Cc3ccccc3)c12 [Formula 1.3]	3	29	Fall in MBP ([1]; 25 mpk): 7 mm Hg; IC50 [2]: 10 µM
O=Cc1c(O)c2cc(OCc3ccccc3)ccc2n(Cc2ccccc2)c1=O [Formula 1.10]	10	32	–
CCCCCCn1c(=O)c(C=O)c(O)c2ccccc21 [Formula 1.11]	8	20	–
O=Cc1c(O)c2ccc(Cl)cc2n(Cc2ccccc2)c1=O [Formula 1.15]	5	23	–
Nc1nc2c(ncn2COCCO)c(=O)[nH]1 [Acyclovir, 9-[(2-hydroxyethoxy)methyl]guanine, reference compound]	–	–	Neurological Dysfunction (%) (HSV-2, strain MS): 44%; MLS (Maximum Lesion Scores) (HSV-2, strain MS): 1.61
O=Cc1c(O)c2cc(Cl)ccc2n(Cc2ccccc2)c1=O [Formula 1.6]	4	15	Fall in MBP ([1]; 25 mpk): 48 mm Hg; IC50 [2]: 17 µM
Cn1c(=O)c(C=O)c(O)c2ccccc21 [Formula 1.7]	7	56	IC50 (HSV-2 (strain MS); [5]): 7 µg/mL
O=Cc1c(O)c2ccccc2n(Cc2ccccc2)c1=O [Formula 1.8]	7	29	–
O=Cc1c(O)c2cc(O)ccc2n(Cc2ccccc2)c1=O [Formula 1.12]	13	–	–
CC1(C)C(=O)C(C=O)=C(O)c2ccccc21 [Formula 1.16]	7	34	–

— patent publication US5378694A, “Acyl and alkoxy substituted quinolines” (Schering Corporation, priority 1993, dated 1995)
